# Measured values reported in the NIST ThermoML archive (doi:10.1021/je8007759).
# Numbers after ± are expanded uncertainties.
# Assay: xn = mol fraction of the nth substance listed
compound,measurement,setting,value
CC1CCC(=O)O1 (stereo not given) [γ-valerolactone] + O=C=O,mass density,"322.9 K, 12320 kPa, Fluid (supercritical or subcritical phases), Pycnometric method, x1 = 0.05",820 ± 5 kg/m3
same,mass density,"322.9 K, 12330 kPa, Fluid (supercritical or subcritical phases), Pycnometric method, x1 = 0.025",778 ± 10 kg/m3
same,mass density,"322.9 K, 12520 kPa, Fluid (supercritical or subcritical phases), Pycnometric method, x1 = 0.025",784 ± 6 kg/m3
same,mass density,"322.9 K, 12540 kPa, Fluid (supercritical or subcritical phases), Pycnometric method, x1 = 0.1",910 ± 4 kg/m3
same,mass density,"322.9 K, 12620 kPa, Fluid (supercritical or subcritical phases), Pycnometric method, x1 = 0.05",826 ± 5 kg/m3
same,mass density,"322.9 K, 12660 kPa, Fluid (supercritical or subcritical phases), Pycnometric method, x1 = 0.15",956 ± 4 kg/m3
same,mass density,"322.9 K, 12710 kPa, Fluid (supercritical or subcritical phases), Pycnometric method, x1 = 0.025",790 ± 5 kg/m3
same,mass density,"322.9 K, 12920 kPa, Fluid (supercritical or subcritical phases), Pycnometric method, x1 = 0.025",795 ± 6 kg/m3
same,mass density,"322.9 K, 12960 kPa, Fluid (supercritical or subcritical phases), Pycnometric method, x1 = 0.05",832 ± 5 kg/m3
same,mass density,"322.9 K, 13080 kPa, Fluid (supercritical or subcritical phases), Pycnometric method, x1 = 0.1",915 ± 4 kg/m3
same,mass density,"322.9 K, 13150 kPa, Fluid (supercritical or subcritical phases), Pycnometric method, x1 = 0.025",801 ± 6 kg/m3
same,mass density,"322.9 K, 13170 kPa, Fluid (supercritical or subcritical phases), Pycnometric method, x1 = 0.15",959 ± 4 kg/m3
same,mass density,"322.9 K, 13320 kPa, Fluid (supercritical or subcritical phases), Pycnometric method, x1 = 0.05",838 ± 5 kg/m3
same,mass density,"322.9 K, 13390 kPa, Fluid (supercritical or subcritical phases), Pycnometric method, x1 = 0.025",806 ± 5 kg/m3
same,mass density,"322.9 K, 13570 kPa, Fluid (supercritical or subcritical phases), Pycnometric method, x1 = 0.05",843 ± 5 kg/m3
same,mass density,"322.9 K, 13640 kPa, Fluid (supercritical or subcritical phases), Pycnometric method, x1 = 0.025",812 ± 5 kg/m3
same,mass density,"322.9 K, 13720 kPa, Fluid (supercritical or subcritical phases), Pycnometric method, x1 = 0.15",962 ± 4 kg/m3
same,mass density,"322.9 K, 13790 kPa, Fluid (supercritical or subcritical phases), Pycnometric method, x1 = 0.1",923 ± 4 kg/m3
same,mass density,"322.9 K, 14000 kPa, Fluid (supercritical or subcritical phases), Pycnometric method, x1 = 0.05",850 ± 5 kg/m3
same,mass density,"322.9 K, 14100 kPa, Fluid (supercritical or subcritical phases), Pycnometric method, x1 = 0.025",821 ± 5 kg/m3
same,mass density,"322.9 K, 14230 kPa, Fluid (supercritical or subcritical phases), Pycnometric method, x1 = 0.15",965 ± 4 kg/m3
same,mass density,"322.9 K, 14430 kPa, Fluid (supercritical or subcritical phases), Pycnometric method, x1 = 0.05",856 ± 5 kg/m3
same,mass density,"322.9 K, 14490 kPa, Fluid (supercritical or subcritical phases), Pycnometric method, x1 = 0.1",929 ± 4 kg/m3
same,mass density,"322.9 K, 14840 kPa, Fluid (supercritical or subcritical phases), Pycnometric method, x1 = 0.05",862 ± 5 kg/m3
same,mass density,"322.9 K, 14860 kPa, Fluid (supercritical or subcritical phases), Pycnometric method, x1 = 0.15",969 ± 4 kg/m3
same,mass density,"322.9 K, 14880 kPa, Fluid (supercritical or subcritical phases), Pycnometric method, x1 = 0.1",932 ± 5 kg/m3
same,mass density,"322.9 K, 15440 kPa, Fluid (supercritical or subcritical phases), Pycnometric method, x1 = 0.15",972 ± 4 kg/m3
same,mass density,"322.9 K, 15620 kPa, Fluid (supercritical or subcritical phases), Pycnometric method, x1 = 0.05",872 ± 5 kg/m3
same,mass density,"322.9 K, 15960 kPa, Fluid (supercritical or subcritical phases), Pycnometric method, x1 = 0.15",975 ± 4 kg/m3
same,mass density,"322.9 K, 16660 kPa, Fluid (supercritical or subcritical phases), Pycnometric method, x1 = 0.15",979 ± 4 kg/m3
same,mass density,"322.9 K, 17270 kPa, Fluid (supercritical or subcritical phases), Pycnometric method, x1 = 0.15",982 ± 4 kg/m3
same,mass density,"322.9 K, Gas, high pressure variable cell, x1 = 0.01",514 ± 4 kg/m3
same,mass density,"322.9 K, Gas, high pressure variable cell, x1 = 0.025",672 ± 4 kg/m3
same,mass density,"322.9 K, Gas, high pressure variable cell, x1 = 0.05",763 ± 4 kg/m3
same,mass density,"322.9 K, Liquid, high pressure variable cell, x1 = 0.1",877 ± 4 kg/m3
same,mass density,"322.9 K, Liquid, high pressure variable cell, x1 = 0.15",936 ± 4 kg/m3
same,mass density,"327.9 K, 10570 kPa, Fluid (supercritical or subcritical phases), Pycnometric method, x1 = 0.01",497 ± 12 kg/m3
same,mass density,"327.9 K, 10600 kPa, Fluid (supercritical or subcritical phases), Pycnometric method, x1 = 0.01",500 ± 12 kg/m3
same,mass density,"327.9 K, 10630 kPa, Fluid (supercritical or subcritical phases), Pycnometric method, x1 = 0.01",502 ± 13 kg/m3
same,mass density,"327.9 K, 10660 kPa, Fluid (supercritical or subcritical phases), Pycnometric method, x1 = 0.01",505 ± 13 kg/m3
same,mass density,"327.9 K, 10690 kPa, Fluid (supercritical or subcritical phases), Pycnometric method, x1 = 0.01",509 ± 25 kg/m3
same,mass density,"327.9 K, 10720 kPa, Fluid (supercritical or subcritical phases), Pycnometric method, x1 = 0.01",511 ± 25 kg/m3
same,mass density,"327.9 K, 10740 kPa, Fluid (supercritical or subcritical phases), Pycnometric method, x1 = 0.01",514 ± 13 kg/m3
same,mass density,"327.9 K, 10770 kPa, Fluid (supercritical or subcritical phases), Pycnometric method, x1 = 0.01",517 ± 6 kg/m3
same,mass density,"327.9 K, 10820 kPa, Fluid (supercritical or subcritical phases), Pycnometric method, x1 = 0.01",522 ± 13 kg/m3
same,mass density,"327.9 K, 10880 kPa, Fluid (supercritical or subcritical phases), Pycnometric method, x1 = 0.01",529 ± 13 kg/m3
same,mass density,"327.9 K, 10930 kPa, Fluid (supercritical or subcritical phases), Pycnometric method, x1 = 0.01",535 ± 13 kg/m3
same,mass density,"327.9 K, 11010 kPa, Fluid (supercritical or subcritical phases), Pycnometric method, x1 = 0.01",542 ± 12 kg/m3
same,mass density,"327.9 K, 11080 kPa, Fluid (supercritical or subcritical phases), Pycnometric method, x1 = 0.01",549 ± 13 kg/m3
same,mass density,"327.9 K, 11130 kPa, Fluid (supercritical or subcritical phases), Pycnometric method, x1 = 0.01",554 ± 12 kg/m3
same,mass density,"327.9 K, 11190 kPa, Fluid (supercritical or subcritical phases), Pycnometric method, x1 = 0.01",559 ± 11 kg/m3
same,mass density,"327.9 K, 11280 kPa, Fluid (supercritical or subcritical phases), Pycnometric method, x1 = 0.01",567 ± 11 kg/m3
same,mass density,"327.9 K, 11300 kPa, Fluid (supercritical or subcritical phases), Pycnometric method, x1 = 0.025",661 ± 9 kg/m3
same,mass density,"327.9 K, 11360 kPa, Fluid (supercritical or subcritical phases), Pycnometric method, x1 = 0.025",665 ± 9 kg/m3
same,mass density,"327.9 K, 11420 kPa, Fluid (supercritical or subcritical phases), Pycnometric method, x1 = 0.01",578 ± 10 kg/m3
same,mass density,"327.9 K, 11420 kPa, Fluid (supercritical or subcritical phases), Pycnometric method, x1 = 0.025",669 ± 6 kg/m3
same,mass density,"327.9 K, 11480 kPa, Fluid (supercritical or subcritical phases), Pycnometric method, x1 = 0.025",673 ± 7 kg/m3
same,mass density,"327.9 K, 11510 kPa, Fluid (supercritical or subcritical phases), Pycnometric method, x1 = 0.01",586 ± 10 kg/m3
same,mass density,"327.9 K, 11520 kPa, Fluid (supercritical or subcritical phases), Pycnometric method, x1 = 0.025",677 ± 7 kg/m3
same,mass density,"327.9 K, 11590 kPa, Fluid (supercritical or subcritical phases), Pycnometric method, x1 = 0.025",682 ± 6 kg/m3
same,mass density,"327.9 K, 11600 kPa, Fluid (supercritical or subcritical phases), Pycnometric method, x1 = 0.15",928 ± 4 kg/m3
same,mass density,"327.9 K, 11630 kPa, Fluid (supercritical or subcritical phases), Pycnometric method, x1 = 0.01",594 ± 9 kg/m3
same,mass density,"327.9 K, 11660 kPa, Fluid (supercritical or subcritical phases), Pycnometric method, x1 = 0.025",686 ± 8 kg/m3
same,mass density,"327.9 K, 11720 kPa, Fluid (supercritical or subcritical phases), Pycnometric method, x1 = 0.05",759 ± 10 kg/m3
same,mass density,"327.9 K, 11730 kPa, Fluid (supercritical or subcritical phases), Pycnometric method, x1 = 0.025",690 ± 7 kg/m3
same,mass density,"327.9 K, 11740 kPa, Fluid (supercritical or subcritical phases), Pycnometric method, x1 = 0.1",864 ± 12 kg/m3
same,mass density,"327.9 K, 11770 kPa, Fluid (supercritical or subcritical phases), Pycnometric method, x1 = 0.1",865 ± 6 kg/m3
same,mass density,"327.9 K, 11790 kPa, Fluid (supercritical or subcritical phases), Pycnometric method, x1 = 0.01",606 ± 9 kg/m3
same,mass density,"327.9 K, 11800 kPa, Fluid (supercritical or subcritical phases), Pycnometric method, x1 = 0.025",694 ± 8 kg/m3
same,mass density,"327.9 K, 11840 kPa, Fluid (supercritical or subcritical phases), Pycnometric method, x1 = 0.05",763 ± 7 kg/m3
same,mass density,"327.9 K, 11880 kPa, Fluid (supercritical or subcritical phases), Pycnometric method, x1 = 0.1",867 ± 6 kg/m3
same,mass density,"327.9 K, 11890 kPa, Fluid (supercritical or subcritical phases), Pycnometric method, x1 = 0.025",698 ± 8 kg/m3
same,mass density,"327.9 K, 11920 kPa, Fluid (supercritical or subcritical phases), Pycnometric method, x1 = 0.01",615 ± 9 kg/m3
same,mass density,"327.9 K, 11920 kPa, Fluid (supercritical or subcritical phases), Pycnometric method, x1 = 0.15",931 ± 4 kg/m3
same,mass density,"327.9 K, 11970 kPa, Fluid (supercritical or subcritical phases), Pycnometric method, x1 = 0.05",768 ± 6 kg/m3
same,mass density,"327.9 K, 11980 kPa, Fluid (supercritical or subcritical phases), Pycnometric method, x1 = 0.01",621 ± 9 kg/m3
same,mass density,"327.9 K, 11990 kPa, Fluid (supercritical or subcritical phases), Pycnometric method, x1 = 0.025",703 ± 7 kg/m3
same,mass density,"327.9 K, 12050 kPa, Fluid (supercritical or subcritical phases), Pycnometric method, x1 = 0.1",871 ± 6 kg/m3
same,mass density,"327.9 K, 12070 kPa, Fluid (supercritical or subcritical phases), Pycnometric method, x1 = 0.01",628 ± 9 kg/m3
same,mass density,"327.9 K, 12110 kPa, Fluid (supercritical or subcritical phases), Pycnometric method, x1 = 0.025",709 ± 10 kg/m3
same,mass density,"327.9 K, 12130 kPa, Fluid (supercritical or subcritical phases), Pycnometric method, x1 = 0.05",774 ± 6 kg/m3
same,mass density,"327.9 K, 12250 kPa, Fluid (supercritical or subcritical phases), Pycnometric method, x1 = 0.15",934 ± 4 kg/m3
same,mass density,"327.9 K, 12280 kPa, Fluid (supercritical or subcritical phases), Pycnometric method, x1 = 0.025",716 ± 7 kg/m3
same,mass density,"327.9 K, 12300 kPa, Fluid (supercritical or subcritical phases), Pycnometric method, x1 = 0.01",639 ± 8 kg/m3
same,mass density,"327.9 K, 12310 kPa, Fluid (supercritical or subcritical phases), Pycnometric method, x1 = 0.05",779 ± 6 kg/m3
